In patent US8846768B2, “Use of compounds isolated from Euphorbia neriifolia for treating cancer and/or thrombocytopenia” (Mackay Memorial Hospital, priority 2012, dated 2014):

Key:
[1] = system: human esophageal squamous 81T/VGH cells; assay: MTT cell viability, growth inhibition on esophageal squamous cells; type: cell-based; details: for Inhibition (%): 81T/VGH cells; for ex vivo growth of esophageal cancerous cells inhibited: time not stated
Description: (§1) Cell lines used in the present disclosure include human chronic is myelogenous leukemia (CML) cell line K562, erythroleukemia HEL cells, human pancreatic carcinoma epithelial-like cell line PANC-1, human esophageal squamous cell carcinoma line 81T/VGH, human esophageal adenocarcinoma line BE-3 and human esophageal adenocarcinoma cell line SKGT4. Each cell lines were cultured and maintained in Dulbecco's modified Eagle media (DMEM) supplemented with 10% fetal calf serum, 100 IU/ml penicillin, 100 μg/ml streptomycin, and 2 mM glutamine in 5% CO2 at 37° C.
(§2) The absorbance of the solution at 570 nm was measured by spectrophotometer.
Effects of the compounds of formula (I) of this disclosure, particularly, EN 22, EN 24, and EN 25, on 81T/VGH cells were assessed by cell viability analysis in accordance with procedures described above.

[2] = system: human esophageal squamous 81T/VGH xenograft tumor; assay: Tumor size in animals grafted with 81T/VGH cancer cells; type: in vivo, Athymic BALB/c-nu nude mice; details: FIG. 1
Description: For inoculated tumor model, 1×10^5 81T/VGH cells were injected subcutaneously to lab animals to generate s.c. tumors (5×10^5 cells per injection) on day 1. The needle hole was sealed with an electric coagulator (Aaron, Petersburg, Fla., USA) immediately after the withdrawal of the needle to avoid leakage of the injected substance. The incision was subsequently sutured.
Results are depicted in FIGS. 1 to 3, respectively.

HEL cells [3] = assay: STAT3 RNAi assay, megakaryocytic differentiation after Stat3 knockdown; type: cell-based, human; details: Stat3 small interference RNA, FIG. 10
Text: The murine stat3 target sequence from positions 134 to 158 (5′-TGGCCCAATGGAATCAGCTACAGCA-3′ (SEQ ID NO: 1)) was selected for the preparation of stat3 siRNA (5′-UGGCCCAAUGGAAUCAGCUACAGCA-3′ (SEQ ID NO: 2)). Scrambled RNAs were employed as a negative control and were synthesized by PCR-derived siRNA expression cassettes according to the manufacturer's instructions and were then cloned into pSEC™ hygro plasmid (Ambion).
[…] HEL cells were transfected with the plasmids (i.e., plasmids containing the nucleic acid for the stat3 siRNA or scramble RNAs) described above with the aid of the lipofectamine 2000 (Invitrogen, Carisbad, Calif. USA). Specifically, 5 μg pSEC™ hygro plasmid contained murine stat3 siNAs and 9 μl lipofectamine 2000 were allowed to form complexes in a period of 25 min at room temperature in antibiotic-free DMEM medium. The complexes were then added to HEL cells maintained and cultured in 6-well dishes and further incubated for another 24 hrs. For the selection of cells with high expression rate of siRNA, stable clones of murine stat3 siRNA expressed cells and negative control siRNA (i.e., scrambled RNA) were selected by use of 500 μg/ml hygromycin contained medium, and the selected clones were maintained in 250 ? μg/ml hygromycin contained medium. […]

[4] = system: human chronic myelogenous leukemia (CML) K562 cells; assay: MTT cell viability, growth inhibition on chronic myelogenous leukemia cells; type: cell-based; details: for Inhibition (%): 10 μM, K562 cells; for ex vivo growth of CML cells suppressed: about 10 μM, time not stated
Description: as §1, §2
Effects of the compounds of formula (I) or (II) of this disclosure, particularly, EN 22, EN 26, and EN 28, on K562 cells were assessed by cell viability analysis in accordance with procedures described above.

[5] = system: stat3 and phosphorylated stat3; assay: Immunoblot of stat3 and phosphorylated stat3 in K562 cells; type: cell-based, human; details: compared with control, FIG. 9
Description: (§3) Cultured cells were lysed by use of well known lysing buffer, and total amount of proteins were determined by Bradford method. The extracted raw proteins (about 50-100 μg) were loaded to […] sodium dodecyl sulfate polyacrylamide gel, and proteins therein were separated by electrophoresis. The separated proteins were then transferred to nitrocellulose membrane and non-specific binding was removed by TBST buffer (0.8% NaCl, 0.02% KCl, 25 mM Tris-HCl/pH 8.0 and 0.1% Tween-20) containing 4% skim milk. Antibodies including p-Jak2, Jak2, p-stat3-2, stat3, p-stat5, stat5, and GAPDH (purchased from Transduction Laboratories, Lexington, Ky., USA), were respectively dissolved in TBST buffer containing 2% skim milk and incubated with the separated protein bands at 4° C. for at least over night; followed by incubation with horseradish conjugated secondary antibodies at room temperature for about 30 min, and then detected by ECL chemiluminesance detection kit (Amersham Pharmacia Biotech, US).
(§4) The induction of K562 cells or HEL cells to form megakaryocytes was further investigated by measuring the expressed level of its regulatory proteins such as, stat3 and phosphorylated stat3.

HEL cells [6] = assay: Cell cycle analysis by flow cytometry; type: cell-based, human; details: FIG. 8
Description: Cultured cells with or without pre-treatment of the compounds of this invention (i.e., the compound of formula (I) or (II)) were harvested from the cultured media and fixed by incuating with 75% iced cold ethanol at 4° C. for at least over night. The fixed cells were then warmed up to room temperature and treated with RNAase A for about 30 min. Precipitated cells were collected by centrifugation and re-suspended in a buffer solution containing propidium iodine (20 μg/ml) before being subject to flow cytometry analysis, where cell numbers at respective cell cycles were determined.

[7] = system: CD61 and CD235a in HEL cells; assay: Flow cytometric analysis of CD61 and CD235a expression; type: cell-based, human; details: 5 μM
Text: The induction of megakaryocytic differentiation may also be confirmed by the measurement of the differentiation markers CD61 and CD235a expressed on the erythrocyte membrane during the differentiation stage.

K562 cells = assay: Megakaryocyte formation, morphology by Liu's staining, K562; type: cell-based, human; details: 10 μM, 9 days, FIG. 6
Description: (§5) Cells were transferred to a glass coverslide and covered with solution A (0.5 g of methylene blue and 1.7 g of Eosin yellow dissolved in 1,000 ml of ethanol). After 45 seconds, solution B (1.3 g of azure, 1.4 g of methylene blue, 23.38 g of Na2HPO4, 6.5 g of KH2PO4, dissolved in 1,000 ml of distilled water) was added in the proportion of 2 parts of B to 1 part of A. Mixed the solutions well by blowing the surface. The slide was left standing for 90 seconds and then washed off the staining solution rapidly by running water. The morphology of stained cells was then examined by observation under microscope.
(§6) Megarkaryocytopoiesis is a process by which bone marrow progenitor cells develop into mature megakaryocytes, which in turn produce platelets required for normal hemostasis.

[8] = system: human erythroleukemia (HEL) cells; assay: In vitro growth inhibition of HEL cells; type: cell-based
Description: as §1, §2

[9] = system: stat3 and phosphorylated stat3; assay: Immunoblot of stat3 and phosphorylated stat3 in HEL cells; type: cell-based, human; details: compared with control, FIG. 9
Description: as §3, §4

HEL cells [10] = assay: Megakaryocyte formation, morphology by Liu's staining, HEL; type: cell-based, human; details: 10 μM, 5 days, FIG. 7
Description: as §5, §6

normal bone marrow cells = assay: Induction and proliferation of megakaryocytes from normal bone marrow cells; type: cell-based; details: 1.25 μM, FIG. 12
[11] = Body weight of tumor-bearing treated animals; details: EN 22 alone, FIG. 2
Description: (§7) Athymic BALB/c-nu nude mice (4 weeks old) were obtained from the National Laboratory Animal Center (Taipei, Taiwan) and were kept in a pathogen-free facility with ad libitum access to water and laboratory chow. A solution of 81T/VGH cells was injected into the subcutaneous tissue to establish a xenograft tumor.
Tumor sizes were measured using calipers, and tumor volume was calculated using the formula: volume=width^2×length×0.52.
(§8) Mice were inoculated with esophageal squamous tumor cells in accordance with the procedures described above. For in vivo therapy, animals were given 2 mg/Kg cisplatin intraperitoneally, in the presence or absence of 20 mg/Kg EN 22, which was given orally, for a period of at least 4 weeks. Tumor size, body weight, white blood cell count, and liver function of each animal were then measured respectively at the indicated time.

[12] = White blood cell counts, liver or kidney function of treated animals; details: EN 22 25 or 50 mg/Kg, FIG. 3
Description: as §7
After treatment, mice were sacrificed and their white blood cells (WBC) counts were measured. Tumor burdens were determined by the total volume of all the tumor nodules with diameter greater than 3 mm.
as §8

SMILES | Inhibition (%) ([1]; 1 μM, 24 hrs) | Inhibition (%) ([1]; 1 μM, 48 hrs) | Inhibition (%) ([1]; 10 μM, 24 hrs) | Inhibition (%) ([1]; 10 μM, 48 hrs) | ex vivo growth of esophageal cancerous cells inhibited ([1]; about 1 μM) | ex vivo growth of esophageal cancerous cells inhibited ([1]; about 10 μM) | Inhibition (%) ([4]; 48 hrs) | ex vivo growth of CML cells suppressed [4] | Inhibition (%) ([4]; 72 hrs) | also measured
CC1C(O)CCC2C1(C)CCC1C2(C)CCC2(C)C3CC(C)(C)CCC3(C)CCC12C (stereo not drawn) [EN 25, 3α-Friedelinol] | 49.45 | 39.99 | 61.74 | 62.55 | about 50% | about 60% |  |  |  | 
N.N.[Cl][Pt][Cl] [cisplatin, reference compound] |  |  |  |  |  |  |  |  |  | tumor size (growth of tumor) ([2]; cisplatin 2 mg/Kg intraperitoneally): capable of suppressing the growth of tumor during the entire treatment period
CC=C(C)C(=O)OC1C(C)=CC23OC2(CC(C)C3OC(C)=O)C(=O)C(C)C(OC(C)=O)C2C(C1OC)C2(C)C (centres unmarked) [EN 28, 3,12-O-Diacetyl-7-O-angeloyl-8-methoxyingol] |  |  |  |  |  |  | 44.85 | about 50% |  | induction of megakaryocytic differentiation after knockdown of Stat3 (HEL cells [3]): partially reversed; level of phosphorylated stat-3 [5]: increased; level of stat3 [5]: increased; cell cycle analysis (HEL cells [6]): capable of inducing the generation of new population of cells; effect of Stat3 knockdown on CD61 and CD235a changes ([7]; HEL cells with siStat3, FIG. 11): not antagonized; CD61 expression ([7]; HEL cells, FIG. 11): up-regulation; CD235a expression ([7]; HEL cells, FIG. 11): down-regulation; morphology change, formation of megakaryocytes (K562 cells): cells started to fuse and form megakaryocytes; in vitro growth of HEL cells inhibited ([8]; 5 μM): about 55%; in vitro growth of HEL cells inhibited ([8]; 10 μM): about 60%; in vitro growth of HEL cells inhibited ([8]; about 2.5 μM): about 40%; level of phosphorylated stat-3 [9]: increased; level of stat3 [9]: increased; morphology change, differentiation into megakaryocytes (HEL cells [10]): induces the differentiation of HEL cells into megakaryocytes; proliferation and differentiation into megakaryocytes (normal bone marrow cells): capable of inducing the proliferation and subsequently, the differentiation of the proliferated normal bone marrow cells into megakaryocytes
CC1C(O)CCC2C1(C)CCC1C2(C)CCC2(C)C3CC(C)(C)CCC3(C)CCC12C (stereo not drawn) [EN 22, 3β-Friedelinol] | 51.98 | 41.42 | 58.03 | 58.61 | about 50% | about 60% | 39.32 | about 45% | 45.38 | body weight loss [11]: free from the “weight lost” problem; tumor size (growth of tumor) ([2]; EN 22 orally, 20 and 50 mg/Kg): able to suppress the growth of the tumor in a dose dependent manner; white blood cell (WBC) counts [12]: did not affect the number of WBC
CC1(C)CC[C@]2(C)CC=C3[C@]4(C)CC[C@H]5C(C)(C)[C@@H](O)CC[C@]5(C)[C@H]4CC[C@@]3(C)[C@@H]2C1 [EN 24, 3β-Taraxerol] | 49.15 | 43.47 | 63.99 | 57.10 |  |  |  |  |  | 
CC=C(C)C(=O)OC1C(OC(C)=O)C(C)=CC23OC2(CC(C)C3OC(C)=O)C(=O)C(C)C(OC(C)=O)C2C1C2(C)C (centres unmarked) [EN 26, 3,7,12-O-Triacetyl-8-O-tigioylingol] |  |  |  |  |  |  | 30.38 | about 40% | 42.35 | Inhibition (%) ([4]; 24 hrs): 12.74%
